Measured values: patent US11787780B2 (CORCEPT THERAPEUTICS INCORPORATED, priority 2020, dated 2023)

Columns and labels:
[1] = biological target: glucocorticoid receptor (GR) recombinant ligand binding domain (LBD) (Homo sapiens (Human), UniProt P04150); experiment: GR binding fluorescence polarisation (FP) assay; settings: displacement of fluorescently tagged ligand
Protocol: Binding of test compounds to the glucocorticoid receptor (GR) is determined using a fluorescence polarisation (FP) assay utilising a recombinant ligand binding domain (LBD) of GR. The test compounds are assessed by their ability to displace a fluorescently tagged ligand and detection of the resulting decrease in fluorescence polarisation.

[2] = tested on: induction of TAT by dexamethasone in HepG2 cells; experiment: Hep G2 TAT assay (inhibition of dexamethasone-induced TAT); assay type: cell-based, human; settings: challenge of 100 nM dexamethasone, IC50 converted to Ki by Cheng and Prusoff equation

Chain of glucocorticoid receptor (GR) recombinant ligand binding domain (LBD) (P04150 524-758): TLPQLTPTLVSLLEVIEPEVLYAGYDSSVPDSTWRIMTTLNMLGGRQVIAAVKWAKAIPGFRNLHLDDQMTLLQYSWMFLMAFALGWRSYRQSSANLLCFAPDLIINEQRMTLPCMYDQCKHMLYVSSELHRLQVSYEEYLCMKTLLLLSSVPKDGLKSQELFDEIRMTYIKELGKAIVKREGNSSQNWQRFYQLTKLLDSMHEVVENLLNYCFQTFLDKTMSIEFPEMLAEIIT

Compound	IC50 [1] [nM]	Ki [2] [nM]
Cc1cc2c(cnn2-c2ccc(F)cc2)cc1C1(Cc2ccccc2)CCN(C(=O)c2ccccc2)C1 (stereo not shown) [Example 193, (3-benzyl-3-(1-(4-fluorophenyl)-6-methyl-1H-indazol-5-yl)pyrrolidin-1-yl)(phenyl)methanone]	28	25
CCCn1cc(S(=O)(=O)N2CCC3(CCN(c4cc5cnn(-c6ccc(F)cc6)c5cc4C)CC3)C2)cn1 [Example 94]	52	95
COc1cc2c(cnn2-c2ccc(F)cc2)cc1C1(Cc2ccccc2)CCN(S(C)(=O)=O)C1 (stereo not shown) [Example 160]	5	24
CCOC(=O)N1CCN(c2cc3cnn(-c4ccc(F)cc4)c3cc2C)CC12CC2 [Example 103]	135	1710
COCCN([C@@H]1CCN(c2cc3cnn(-c4ccc(F)cc4)c3cc2C)C1)S(=O)(=O)c1cnn(C)c1 [Example 121]	40	120
Cc1cc2c(cnn2-c2ccc(F)cc2)cc1C1(Cc2ccccc2)CCN(S(=O)(=O)C2CC2)C1 (stereo not shown) [Example 155]	13	16
Cc1cc2c(cnn2-c2ccc(F)cc2)cc1C1(Cc2ccccc2)CCN(S(=O)(=O)c2cnn(C)n2)C1 (stereo not shown) [Example 213, 5-(3-benzyl-1-((2-methyl-2H-1,2,3-triazol-4-yl)sulfonyl)pyrrolidin-3-yl)-1-(4-fluorophenyl)-6-methyl-1H-indazole]	17	13
[2H]C([2H])([2H])n1cc(-n2ncc3cc(C4(Cc5ccccc5)CCN(S(=O)(=O)c5cnn(C)n5)C4)c(C)cc32)cn1 (stereo not shown) [Example 250, 5-(3-benzyl-1-((2-methyl-2H-1,2,3-triazol-4-yl)sulfonyl)pyrrolidin-3-yl)-6-methyl-1-(1-(methyl-d3)-1H-pyrazol-4-yl)-1H-indazole]	4.1	26
Cc1cc2c(cnn2-c2ccc(F)cc2)cc1N1CCN(C(=O)c2ccc(F)c(F)c2)C2(CC2)C1 [Example 101]	118	823
Cc1cc2c(cnn2-c2ccc(F)cc2)cc1N1CCC(C)(NS(=O)(=O)c2cnn(CC3CC3)n2)CC1 [Example 132]	13	34
C[C@@H]1CN(c2ccc3c(cnn3-c3ccc(F)cc3)c2)CCN1S(=O)(=O)c1cnn(CC2CC2)c1 [Example 39]	81	242
COc1cc2c(cnn2-c2ccc(F)cc2)cc1C1(Cc2ccccc2)CCN(C(=O)c2cncs2)C1 (stereo not shown) [Example 231, (3-benzyl-3-(1-(4-fluorophenyl)-6-methoxy-1H-indazol-5-yl)pyrrolidin-1-yl)(thiazol-5-yl)methanone]	13	48
COc1cc2c(cnn2-c2ccc(F)cc2)cc1C1(Cc2ccccc2)CCN(S(=O)(=O)c2cnn(C)n2)C1 (stereo not shown) [Example 218, 5-(3-benzyl-1-((2-methyl-2H-1,2,3-triazol-4-yl)sulfonyl)pyrrolidin-3-yl)-1-(4-fluorophenyl)-6-methoxy-1H-indazole]	14	10
Cc1cc2c(cnn2-c2ccc(F)cc2)cc1N1CCN(S(=O)(=O)c2cnn(C(C)C)n2)C2(CC2)C1 [Example 68]	35	30
Cc1cc2c(cnn2-c2ccc(F)cc2)cc1N1CCN(S(C)(=O)=O)C2(CC2)C1 [Example 58]	32	321
COc1cc2c(cnn2-c2ccc(F)cc2)cc1N1CCN(S(C)(=O)=O)C2(CC2)C1 [Example 70]	28	1580
Cc1cc2c(cnn2-c2ccc(F)cc2)cc1N1CCC[C@H](N(C)S(C)(=O)=O)C1 [Example 123]	73	284
CCCn1cc(S(=O)(=O)N2CCN(c3ccc4c(cnn4-c4ccc(F)cc4)c3)CC23CC3)cn1 [Example 50]	27	480
CCCn1cc(S(=O)(=O)NC2(C)CCN(c3cc4cnn(-c5ccc(F)cc5)c4cc3C)C2)cn1 (stereo not shown) [Example 120]	3	218

Second part, led by results:

IC50 [1] [nM]	Compound	Ki [2] [nM]
16	Cc1cc2c(cnn2-c2ccc(=O)n(C)c2)cc1C1(Cc2ccccc2)CCN(C(=O)C2(C(F)(F)F)CC2)C1 (stereo not shown) [Example 330, 5-(5-(3-benzyl-1-(1-(trifluoromethyl)cyclopropane-1-carbonyl)pyrrolidin-3-yl)-6-methyl-1H-indazol-1-yl)-1-methylpyridin-2(1H)-one]	200
4	Cc1cc2c(cnn2-c2ccc(=O)n(C)c2)cc1C1(Cc2ccccc2)CCN(S(=O)(=O)c2ccccc2)C1 (stereo not shown) [Example 294, 5-(5-(3-benzyl-1-(phenylsulfonyl)pyrrolidin-3-yl)-6-methyl-1H-indazol-1-yl)-1-methylpyridin-2(1H)-one]	41
20	Cc1cc2c(cnn2-c2cc(C)c(=O)n(C)c2)cc1C1(Cc2ccccc2)CCN(S(=O)(=O)c2ccc(F)c(F)c2)C1 (stereo not shown) [Example 271, 5-(5-(3-benzyl-1-((3,4-difluorophenyl)sulfonyl)pyrrolidin-3-yl)-6-methyl-1H-indazol-1-yl)-1,3-dimethylpyridin-2(1H)-one]	55
150	Cc1cc2c(cnn2-c2ccnn2C)cc1C1(Cc2ccccc2)CCN(S(=O)(=O)c2cnn(C)n2)C1 (stereo not shown) [Example 260, 5-(3-benzyl-1-((2-methyl-2H-1,2,3-triazol-4-yl)sulfonyl)pyrrolidin-3-yl)-6-methyl-1-(1-methyl-1H-pyrazol-5-yl)-1H-indazole]	350
14	Cc1cc2c(cnn2-c2ccc(=O)n(C)c2)cc1C1(Cc2ccccc2)CCN(S(=O)(=O)c2ccc(C(F)(F)F)nc2)C1 (stereo not shown) [Example 292, 5-(5-(3-benzyl-1-((6-(trifluoromethyl)pyridin-3-yl)sulfonyl)pyrrolidin-3-yl)-6-methyl-1H-indazol-1-yl)-1-methylpyridin-2(1H)-one]	110
15	Cc1cc2c(cnn2-c2ccc(=O)n(C)c2)cc1C1(Cc2ccccc2)CCN(C(=O)C2CC2C)C1 (stereo not shown) [Example 331, 5-(5-(3-benzyl-1-(2-methylcyclopropane-1-carbonyl)pyrrolidin-3-yl)-6-methyl-1H-indazol-1-yl)-1-methylpyridin-2(1H)-one]	100
5.6	Cc1cc2c(cnn2-c2ccc(=O)[nH]c2)cc1C1(Cc2ccccc2)CCN(S(=O)(=O)c2cnn(C)n2)C1 (stereo not shown) [Example 267, 5-(5-(3-benzyl-1-((2-methyl-2H-1,2,3-triazol-4-yl)sulfonyl)pyrrolidin-3-yl)-6-methyl-1H-indazol-1-yl)pyridin-2(1H)-one]	93
280	Cc1cc2c(cnn2-c2cc(C3CC3)c(=O)n(C)c2)cc1C1(Cc2ccccc2)CCN(S(=O)(=O)c2cnn(C)n2)C1 (stereo not shown) [Example 262, 5-(5-(3-benzyl-1-((2-methyl-2H-1,2,3-triazol-4-yl)sulfonyl)pyrrolidin-3-yl)-6-methyl-1H-indazol-1-yl)-3-cyclopropyl-1-methylpyridin-2(1H)-one]	190
11	COc1cccc(S(=O)(=O)N2CCC(Cc3ccccc3)(c3cc4cnn(-c5ccc(=O)n(C)c5)c4cc3C)C2)c1 (stereo not shown) [Example 310, 5-(5-(3-benzyl-1-((3-methoxyphenyl)sulfonyl)pyrrolidin-3-yl)-6-methyl-1H-indazol-1-yl)-1-methylpyridin-2(1H)-one]	66
11	COc1ccc(S(=O)(=O)N2CCC(Cc3ccccc3)(c3cc4cnn(-c5ccc(=O)n(C)c5)c4cc3C)C2)cn1 (stereo not shown) [Example 306, 5-(5-(3-benzyl-1-((6-methoxypyridin-3-yl)sulfonyl)pyrrolidin-3-yl)-6-methyl-1H-indazol-1-yl)-1-methylpyridin-2(1H)-one]	56
11	Cc1cc2c(cnn2-c2ccc(=O)n(C)c2)cc1C1(Cc2ccccc2)CCN(S(=O)(=O)c2ccc(F)cc2F)C1 (stereo not shown) [Example 314, 5-(5-(3-benzyl-1-((2,4-difluorophenyl)sulfonyl)pyrrolidin-3-yl)-6-methyl-1H-indazol-1-yl)-1-methylpyridin-2(1H)-one]	56
24	Cc1cc2c(cnn2-c2cnn(C)c2C)cc1C1(Cc2ccccc2)CCN(S(=O)(=O)c2cnn(C)n2)C1 (stereo not shown) [Example 253, 5-(3-benzyl-1-((2-methyl-2H-1,2,3-triazol-4-yl)sulfonyl)pyrrolidin-3-yl)-1-(1,5-dimethyl-1H-pyrazol-4-yl)-6-methyl-1H-indazole]	240
6.7	Cc1cc2c(cnn2-c2ccc(=O)n(C)c2)cc1C1(Cc2ccccc2)CCN(S(=O)(=O)c2c(F)cccc2F)C1 (stereo not shown) [Example 315, 5-(5-(3-benzyl-1-((2,6-difluorophenyl)sulfonyl)pyrrolidin-3-yl)-6-methyl-1H-indazol-1-yl)-1-methylpyridin-2(1H)-one]	29
24	Cc1ncc(S(=O)(=O)N2CCC(Cc3ccccc3)(c3cc4cnn(-c5ccc(=O)n(C)c5)c4cc3C)C2)cn1 (stereo not shown) [Example 322, 5-(5-(3-benzyl-1-((2-methylpyrimidin-5-yl)sulfonyl)pyrrolidin-3-yl)-6-methyl-1H-indazol-1-yl)-1-methylpyridin-2(1H)-one]	77
29	Cc1cc2c(cnn2-c2cnn(C3CC3)c2)cc1C1(Cc2ccccc2)CCN(S(=O)(=O)c2cnn(C)n2)C1 (stereo not shown) [Example 252, 5-(3-benzyl-1-((2-methyl-2H-1,2,3-triazol-4-yl)sulfonyl)pyrrolidin-3-yl)-1-(1-cyclopropyl-1H-pyrazol-4-yl)-6-methyl-1H-indazole]	94
18	Cc1cc2c(cnn2-c2ccc(=O)n(C)c2)cc1C1(Cc2ccccc2)CCN(S(=O)(=O)c2cn(C)nn2)C1 (stereo not shown) [Example 275, 5-(5-(3-benzyl-1-((1-methyl-1H-1,2,3-triazol-4-yl)sulfonyl)pyrrolidin-3-yl)-6-methyl-1H-indazol-1-yl)-1-methylpyridin-2(1H)-one]	70
